Laboratory results from patent US20180236011A1, “METHODS TO ENHANCE TUMOR-TARGETING BY BACTERIA” (priority 2017, published 2018).

What was measured:
melanoma PDOX [1] = assay: Histological analysis (H&E) of treated PDOX tumors; type: in vivo, Athymic nu/nu nude mice; conditions: each drug combined with S. typhimurium A1-R; much more extensive than S. typhimurium A1-R
Protocol: (§1) PDOX mouse models were randomized into four groups of 10 mice each: untreated control (n=10); treated with S. typhimurium A1-R (5×10^7 CFU/100 μl, i.v., qw×2, n=10); treated with TEM (25 mg/kg, p.o., qd×14) combined with S. typhimurium A1-R (5×10^7 CFU/[…]., qw×2, n=10); treated with VEM (30 mg/kg, p.o., qd×14) combined with S. typhimurium A1-R (5×10^7CFU/100 μl, i.v., qw×2, n=10). Tumor length and width were measured twice a week. Tumor volume was calculated with the following formula: Tumor volume (mm3)=length (mm)×width (mm)×width (mm)×½. Data are presented as mean±SD. The tumor volume ratio is defined at the tumor volume at any given time point relative to the initial tumor volume.
Fresh tumor samples were fixed in 10% formalin and embedded in paraffin before sectioning and staining. Tissue sections (5 μm) were deparaffinized in xylene and rehydrated in an ethanol series. Hematoxylin and eosin (H&E) staining was performed according to standard protocols. Histological examination was performed with a BHS System Microscope (Olympus Corporation, Tokyo, Japan). Images were acquired with INFINITY ANALYZE software (Lumenera Corporation, Ottawa, Canada).

melanoma PDOX [2] = assay: Confocal microscopy of S. typhimurium A1-R-GFP tumor targeting (fluorescent area); type: in vivo, Athymic nu/nu nude mice; conditions: drug combined with S. typhimurium A1-R
Protocol: GFP-expressing S. typhimurium A1-R bacteria (AntiCancer Inc.,) were grown overnight on LB medium (Fisher Sci., Hanover Park, Ill., USA) and then diluted 1:10 in LB medium. Bacteria were harvested at late-log phase, washed with PBS, and then diluted in PBS. S. typhimurium A1-R was injected intravenously. A total of 5×10^7 CFU S. typhimurium A1-R in 100 μl PBS was administered to each mouse.
as §1
The FV1000 confocal microscope (Olympus, Tokyo, Japan) was used for high-resolution imaging. Fluorescence images were obtained using the 20×/0.50 UPLAN FLN and 40×/1.3 oil Olympus UPLAN FLN objectives. The tumor fluorescent area was analyzed with UVP software (UVP, Upland, Calif.).

With Cn1nnc2c(C(N)=O)ncn2c1=O [TEM, temozolamide] the “tumor necrosis (histology)” value (melanoma PDOX [1]) was “extensive necrosis”, the “S. typhimurium A1-R tumor targeting / accumulation” value (melanoma PDOX [2]; elevated accumulation leading to extensive tumor necrosis) was “promoted S. typhimurium A1-R tumor targeting” and the “S. typhimurium A1-R-GFP fluorescent area compared to S. typhimurium A1-R alone” value (melanoma PDOX [2]; p<0.01) was “significantly increase”.
